The values that follow come from publication PMC11659602, “Discovering covalent cyclic peptide inhibitors of peptidyl arginine deiminase 4 (PADI4) using mRNA-display with a genetically encoded electrophilic warhead” (Communications Chemistry, 2024).

For assay [1], the system named is PADI4. As to conditions: cited from earlier work.
Assay [2] concerns the target T1, PADI4 (Homo sapiens, UniProt Q9UM07).
T1 construct: His6; made in house
The assay can be described thus: COLDER inhibition assay, BAEE substrate, with or without 1 h preincubation. Format: biochemical. As to conditions: for remaining activity at 0.003 µM: peptide 0.003 µM; for remaining activity at 0.01 µM: peptide 0.01 µM; for remaining activity at 3 µM: peptide 3 µM; for remaining activity at 30 µM: peptide 30 µM. A digest of the protocol:
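50 nM His-PADI4 with peptide (final 0.1× the 0.03-500 µM series), 0.6 mg/mL BSA, 10 mM CaCl2 in 50 mM HEPES, 150 mM NaCl, 2 mM DTT, pH 7.5, with or without 1 h preincubation before 10 mM BAEE. After 30 min at rt, EDTA-quenched; citrulline read colorimetrically at 540 nm; mean ± SEM, ≥2 replicates.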

Assay [3] concerns the target T1, PADI4. Description: Surface plasmon resonance (SPR), single cycle kinetics. Format: binding. Summed up: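 Biotinylated His-PADI4 captured on CAP chip (~3000 RU); peptides as 5-point 3-fold series in HEPES, 150 mM NaCl, 10 mM CaCl2, 0.1% DMSO, pH 7.5, triplicate. Warhead peptides fitted two-state (k-2 = 0; Ki = k-1/k+1, kinact = k+2); others 1:1.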
A general note: SPR reads the build-up and loss of mass on a sensor chip optically.

For assay [4], the target named is T1, PADI4. Description: Intact mass spectrometry of covalent labelling. It is filed as binding. As to conditions: 20 µM PADI4, 200 µM peptide, 1 hour at rt.
The target of assay [5] is T2, PADI4 C645A (Homo sapiens, UniProt Q9UM07, C645A).
T2 construct: PADI4 (residues 1-663); made in house; host or cells: E. coli NiCo21(DE3)
T2 sequence (Q9UM07 whole entry C645A, the tested form may be a part): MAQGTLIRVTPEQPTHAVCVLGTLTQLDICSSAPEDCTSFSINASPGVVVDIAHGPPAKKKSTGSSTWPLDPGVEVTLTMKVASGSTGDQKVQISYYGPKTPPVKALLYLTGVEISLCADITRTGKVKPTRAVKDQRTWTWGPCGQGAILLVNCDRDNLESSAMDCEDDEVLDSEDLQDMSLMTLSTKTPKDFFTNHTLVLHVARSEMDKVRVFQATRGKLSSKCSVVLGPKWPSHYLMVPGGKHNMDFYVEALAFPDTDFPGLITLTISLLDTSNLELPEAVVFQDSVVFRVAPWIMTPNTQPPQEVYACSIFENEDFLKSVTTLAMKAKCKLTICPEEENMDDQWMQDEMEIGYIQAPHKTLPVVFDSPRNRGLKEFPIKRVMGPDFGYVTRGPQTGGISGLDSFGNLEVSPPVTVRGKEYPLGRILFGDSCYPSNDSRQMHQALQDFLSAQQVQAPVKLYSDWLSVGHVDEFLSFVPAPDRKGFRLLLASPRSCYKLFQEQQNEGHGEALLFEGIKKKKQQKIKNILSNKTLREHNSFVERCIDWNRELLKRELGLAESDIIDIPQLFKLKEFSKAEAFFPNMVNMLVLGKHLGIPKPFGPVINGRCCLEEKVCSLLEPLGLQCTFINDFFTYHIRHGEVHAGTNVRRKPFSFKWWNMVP
Description: Intact mass spectrometry of covalent labelling. Format: binding. Particulars: 20 µM protein, 200 µM peptide, 1 hour at rt.

The subject of assay [6] is PADIs 1-4. Description: COLDER citrullination activity of purified PADIs 1-4 and PADI4 C645A (no inhibitor). It is filed as biochemical, human. Particulars: purified PADI enzyme, no inhibitor (Figure S10). The method, then: PADI4 citrullination activity was analysed using the COLDER assay in 96-well plates. Peptide dilutions were prepared from a 500 µM stock, to give a 10 times concentrated dilution series (500 µM, 300 µM, 100 µM, 30 µM, 10 µM, 3 µM, 1 µM, 0.3 µM, 0.1 µM and 0.03 µM) in COLDER buffer (50 mM HEPES, 150 mM NaCl and 2 mM DTT, pH 7.5) containing 1% DMSO. In triplicate, each was diluted 10-fold further when mixed with 50 nM His-PADI4, 0.6 mg/mL BSA and 10 mM CaCl2, in COLDER buffer. With or without one hour of incubation, 10 mM N^α-Benzoyl-L-arginine ethyl ester hydrochloride (BAEE, Merck) was added to initiate the reaction (50 µL final volume). After 30 min at rt, EDTA (50 mM final concentration) was used to quench the reaction and 200 µL of COLDER solution containing 20 mM Diacetyl monoxime/2,3-butanedione monoxime (Merck), 0.5 mM Thiosemicarbazide (Acros Organics), 2.25 M H3PO4, 4.5 M H2SO4 and 1.5 mM NH4Fe(SO4)2.12H2O was added to each well. Samples were incubated for 20 min at 95 °C before measuring absorbance at 540 nm on a CLARIOstar Plus (BMG LABTECH). Data analysis was performed with GraphPad Prism. Data are presented as the average ± standard error of the mean from at least two independent replicates.

Setting [7] is: 1 h, T=1 (1 h preincubation), read-out: PADI4 activity, dose-response data of Figure S15 (individual replicates).
Setting [8] is: T=0 (no preincubation), read-out: PADI4 activity, dose-response data of Figure S15 (individual replicates).

Several values for one entry are separate records, joined by “and”; a condition that tells them apart may be missing. Equal values may be shown once. Entries after “also recorded” stand apart in the source; their conditions may differ. Read-outs that look alike come from different tables or passages of the source. Where a SMILES comes first, the peptide text is derived from it. Bridges are numbered along the chain shown (N, C = ends). [ ]: non-standard residue; d: D form. Orn(fluoroacetimidoyl) = N=C(CF)NCCC[C@H](N)C(=O)O

T1 sequence (Q9UM07 whole entry): as the sequence (Q9UM07 whole entry C645A, the tested form may be a part) above, with A645C counted along it

As for `N=C(CF)NCCC[C@H](NC(=O)c1ccccc1)C(N)=O` [Fluoroamidine], the “selectivity for PADI4 over PADI1” value in assay [1] is “limited selectivity”.

In the case of `CC[C@H](C)[C@@H]1NC(=O)[C@@H](Cc2ccc(O)cc2)NC(=O)CSC[C@@H](C(=O)NCC(N)=O)NC(=O)[C@H]([C@@H](C)O)NC(=O)[C@H](C(C)C)NC(=O)[C@H](CC(=O)O)NC(=O)[C@H](CCCNC(=N)CF)NC(=O)[C@H](CC(C)C)NC(=O)[C@H](CC(=O)O)NC(=O)[C@H](Cc2c[nH]c3ccccc23)NC1=O` [cP4_13] ({CH2CO}-[dY]IWDL[Orn(fluoroacetimidoyl)]DVTCG-NH2; thioether N-10), in assay [2] (setting [7]), the remaining activity at 0.003 µM is 108%, the remaining activity at 0.01 µM turned out to be 111%, the remaining activity at 3 µM turned out to be 87.4% and the remaining activity at 30 µM came to 21.7%. In assay [2] (COLDER, in words), the “inhibition of PADI4 activity” value is “Neither peptide had strong inhibitory activity”. In addition, in assay [2] (setting [8]), the remaining activity at 0.003 µM stood at 103%, the remaining activity at 0.01 µM worked out at 104%, the remaining activity at 3 µM worked out at 101% and the remaining activity at 30 µM was 86.3%. Besides, the remaining activity at 0.03 µM in assay [2] (T=0 (no preincubation), peptide 0.03 µM, read-out: PADI4 activity, dose-response data of Figure S15 (individual replicates)) amounted to 101%. Further, in assay [2] (T=0 (no preincubation), peptide 0.1 µM, read-out: PADI4 activity, dose-response data of Figure S15 (individual replicates)), the remaining activity at 0.1 µM is 105%. Moreover, in assay [2] (T=0 (no preincubation), peptide 0.3 µM, read-out: PADI4 activity, dose-response data of Figure S15 (individual replicates)), the remaining activity at 0.3 µM came to 105%. In assay [2] (T=0 (no preincubation), peptide 1 µM, read-out: PADI4 activity, dose-response data of Figure S15 (individual replicates)), the remaining activity at 1 µM came out at 102%. For the same molecule, the remaining activity at 10 µM in assay [2] (T=0 (no preincubation), peptide 10 µM, read-out: PADI4 activity, dose-response data of Figure S15 (individual replicates)) came to 96.7%. In addition, in assay [3] (each replicate), the k2 / kinact amounted to 0.0029 s⁻¹ and the k-1 turned out to be 0.00088 s⁻¹. Moreover, the kinact in assay [3] (each replicate, read-out: k2 / kinact) amounted to 0.0025 s⁻¹. Also, in assay [3] (in words), the “binding to PADI4 by SPR” value is “among some of the poorest binders”. The kinact in assay [3] (two-state reaction model, k+2, read-out: SPR kinact (converted)) is 0.00267 s⁻¹. The affinity in assay [3] (two-state reaction model, k-1/k+1), expressed as Ki, was 4.3 ± 3.1 µM. The “covalent labelling of PADI4 by intact MS” value in assay [4] was “single; also recorded: covalently bind to C645 of PADI4”. The “covalent labelling of PADI4 C645A by intact MS” value in assay [5] is on record as “no labelling”.

For the molecule PADI4, in assay [6], the “Absorbance at 540 nm” value is 1.538 and 1.537 and 1.638 and 1.921 and 1.811 and 1.856.

B1: PADI1 (protein, UniProt Q9ULC6 1-663, looked up)
Protein-arginine deiminase …: MAPKRVVQLSLKMPTHAVCVVGVEAHVDIHSDVPKGANSFRVSGSSGVEVFMVYNRTRVKEPIGKARWPLDTDADMVVSVGTASKELKDFKVRVSYFGEQEDQALGRSVLYLTGVDISLEVDTGRTGKVKRSQGDKKTWRWGPEGYGAILLVNCDRDNHRSAEPDLTHSWLMSLADLQDMSPMLLSCNGPDKLFDSHKLVLNVPFSDSKRVRVFCARGGNSLSDYKQVLGPQCLSYEVERQPGEQEIKFYVEGLTFPDADFLGLVSLSVSLVDPGTLPEVTLFTDTVGFRMAPWIMTPNTQPPEELYVCRVMDTHGSNEKFLEDMSYLTLKANCKLTICPQVENRNDRWIQDEMEFGYIEAPHKSFPVVFDSPRNRGLKDFPYKRILGPDFGYVTREIPLPGPSSLDSFGNLDVSPPVTVGGTEYPLGRILIGSSFPKSGGRQMARAVRNFLKAQQVQAPVELYSDWLSVGHVDEFLTFVPTSDQKGFRLLLASPSACLKLFQEKKEEGYGEAAQFDGLKHQAKRSINEMLADRHLQRDNLHAQKCIDWNRNVLKRELGLAESDIVDIPQLFFLKNFYAEAFFPDMVNMVVLGKYLGIPKPYGPIINGRCCLEEKVQSLLEPLGLHCIFIDDYLSYHELQGEIHCGTNVRRKPFPFKWWNMVP
For B1, the “Absorbance at 540 nm” value in assay [6] is 1.397 and 1.419 and 1.464 and 1.243 and 1.309 and 1.332.

B2: PADI3 (protein, UniProt Q9ULW8 1-664, looked up)
Protein-arginine deiminase …: MSLQRIVRVSLEHPTSAVCVAGVETLVDIYGSVPEGTEMFEVYGTPGVDIYISPNMERGRERADTRRWRFDATLEIIVVMNSPSNDLNDSHVQISYHSSHEPLPLAYAVLYLTCVDISLDCDLNCEGRQDRNFVDKRQWVWGPSGYGGILLVNCDRDDPSCDVQDNCDQHVHCLQDLEDMSVMVLRTQGPAALFDDHKLVLHTSSYDAKRAQVFHICGPEDVCEAYRHVLGQDKVSYEVPRLHGDEERFFVEGLSFPDAGFTGLISFHVTLLDDSNEDFSASPIFTDTVVFRVAPWIMTPSTLPPLEVYVCRVRNNTCFVDAVAELARKAGCKLTICPQAENRNDRWIQDEMELGYVQAPHKTLPVVFDSPRNGELQDFPYKRILGPDFGYVTREPRDRSVSGLDSFGNLEVSPPVVANGKEYPLGRILIGGNLPGSSGRRVTQVVRDFLHAQKVQPPVELFVDWLAVGHVDEFLSFVPAPDGKGFRMLLASPGACFKLFQEKQKCGHGRALLFQGVVDDEQVKTISINQVLSNKDLINYNKFVQSCIDWNREVLKRELGLAECDIIDIPQLFKTERKKATAFFPDLVNMLVLGKHLGIPKPFGPIINGCCCLEEKVRSLLEPLGLHCTFIDDFTPYHMLHGEVHCGTNVCRKPFSFKWWNMVP
Regarding B2, the “Absorbance at 540 nm” value in assay [6] was 1.346 and 1.369 and 1.38 and 1.26 and 1.243 and 1.268.
